Patent US12378224B2 (Dong-A Socio Holdings Co., Ltd., priority 2016, dated 2025)

molecular target: human MER (528-end) (Homo sapiens (Human), UniProt Q12866); experiment: HTRF Kinase Activity Biochemical Assay (KinEASE-TK); settings: 10 uM ATP
In short: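 Recombinant human MER (528-end) phosphorylated biotin-TK peptide substrate, 1 h at room temperature. Reaction stopped with detection buffer containing 0.375 nM Eu3+-cryptate anti-TK antibody and 0.062 uM streptavidin-XL665, 1 h further. Activity taken as HTRF ratio 665/620 nm ×10,000, 340 nm excitation.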

human MER (528-end), sequence (Q12866 528-999 limits assumed): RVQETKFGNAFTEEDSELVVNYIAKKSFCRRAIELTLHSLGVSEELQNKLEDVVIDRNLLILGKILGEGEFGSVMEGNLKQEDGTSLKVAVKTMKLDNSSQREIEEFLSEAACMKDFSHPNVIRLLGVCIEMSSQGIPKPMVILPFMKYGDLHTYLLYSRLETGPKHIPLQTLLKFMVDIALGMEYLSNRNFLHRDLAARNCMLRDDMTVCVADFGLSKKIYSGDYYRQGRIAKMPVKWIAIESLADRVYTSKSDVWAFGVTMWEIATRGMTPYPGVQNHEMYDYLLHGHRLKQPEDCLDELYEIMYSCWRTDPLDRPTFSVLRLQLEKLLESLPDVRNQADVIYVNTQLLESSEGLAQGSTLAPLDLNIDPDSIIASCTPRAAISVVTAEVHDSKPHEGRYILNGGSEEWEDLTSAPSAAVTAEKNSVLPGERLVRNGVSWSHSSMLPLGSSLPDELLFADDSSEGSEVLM

Row | IC50 | Structure (SMILES)
1 | > 1000 nM | Cn1cc(-c2cnc(N)c(C(=O)N[C@@H]3CCN(C(=O)c4ccc(Br)cc4)C3)c2)cn1 [Example 342, (R)-2-amino-N-(1-(4-bromobenzoyl)pyrrolidin-3-yl)-5-(1-methyl-1H-pyrazol-4-yl)nicotinamide]
2 | 10 to 100 nM | Cn1cc(-c2cnc(N)c(C(=O)N[C@@H]3CCN(C(=O)c4ccc(-c5ccccc5)cc4)C3)c2)cn1 [Example 343, (R)—N-(1-([1,1′-biphenyl]-4-carbonyl)pyrrolidin-3-yl)-2-amino-5-(1-methyl-1H-pyrazol-4-yl)nicotinamide]
3 | > 1000 nM | Cn1cc(-c2cnc(N)c(C(=O)N[C@H]3CCN(C(=O)c4cccc(-c5ccccc5)c4)C3)c2)cn1 [Example 345, (S)—N-(1-([1,1′-biphenyl]-3-carbonyl)pyrrolidin-3-yl)-2-amino-5-(1-methyl-1H-pyrazol-4-yl)nicotinamide]
4 | 100 to 1000 nM | Cn1cc(-c2cnc(N)c(C(=O)N[C@@H]3CCN(C(=O)c4ccc(-c5ccccc5CO)cc4)C3)c2)cn1 [Example 349, (R)-2-amino-N-(1-(2′-(hydroxymethyl)-[1,1′-biphenyl]-4-carbonyl)pyrrolidin-3-yl)-5-(1-methyl-1H-pyrazol-4-yl)nicotinamide]
5 | 100 to 1000 nM | CC(C)c1ccccc1-c1ccc(C(=O)N2CC[C@@H](NC(=O)c3cc(-c4cnn(C)c4)cnc3N)C2)cc1 [Example 350, (R)-2-amino-N-(1-(2′-isopropyl-[1,1′-biphenyl]-4-carbonyl)pyrrolidin-3-yl)-5-(1-methyl-1H-pyrazol-4-yl)nicotinamide]
6 | > 1000 nM | Cn1cc(-c2cnc(N)c(C(=O)N[C@@H]3CCN(C(=O)c4ccc(-c5ccccc5-c5ccccc5)cc4)C3)c2)cn1 [Example 352, (R)—N-(1-([1,1′:2′,1″-terphenyl]-4-carbonyl)pyrrolidin-3-yl)-2-amino-5-(1-methyl-1H-pyrazol-4-yl)nicotinamide]
7 | 100 to 1000 nM | CCc1ccccc1-c1ccc(C(=O)N2CC[C@@H](NC(=O)c3cc(-c4cnn(C)c4)cnc3N)C2)cc1 [Example 353, (R)-2-amino-N-(1-(2′-ethyl-[1,1′-biphenyl]-4-carbonyl)pyrrolidin-3-yl)-5-(1-methyl-1H-pyrazol-4-yl)nicotinamide]
8 | 10 to 100 nM | COc1ccccc1-c1ccc(C(=O)N2CC[C@@H](NC(=O)c3cc(-c4cnn(C)c4)cnc3N)C2)cc1 [Example 354, (R)-2-amino-N-(1-(2′-methoxy-[1,1′-biphenyl]-4-carbonyl)pyrrolidin-3-yl)-5-(1-methyl-1H-pyrazol-4-yl)nicotinamide]
9 | > 1000 nM | Cn1cc(-c2cnc(N)c(C(=O)N[C@@H]3CCN(C(=O)c4ccc(-c5ccc(F)nc5)cc4)C3)c2)cn1 [Example 357, (R)-2-amino-N-(1-(4-(6-fluoropyridin-3-yl)benzoyl)pyrrolidin-3-yl)-5-(1-methyl-1H-pyrazol-4-yl)nicotinamide]
10 | 100 to 1000 nM | Cn1cc(-c2cnc(N)c(C(=O)N[C@@H]3CCN(C(=O)c4ccc(-c5ccsc5)cc4)C3)c2)cn1 [Example 358, (R)-2-amino-5-(1-methyl-1H-pyrazol-4-yl)-N-(1-(4-(thiophen-3-yl)benzoyl)pyrrolidin-3-yl)nicotinamide]
11 | 10 to 100 nM | Cn1cc(-c2cnc(N)c(C(=O)N[C@@H]3CCN(C(=O)c4ccc(-c5ccccc5Cl)cc4)C3)c2)cn1 [Example 359, (R)-2-amino-N-(1-(2′-chloro-[1,1′-biphenyl]-4-carbonyl)pyrrolidin-3-yl)-5-(1-methyl-1H-pyrazol-4-yl)nicotinamide]
12 | 10 to 100 nM | Cn1cc(-c2cnc(N)c(C(=O)N[C@@H]3CCN(C(=O)c4ccc(-c5cccc(Cl)c5)cc4)C3)c2)cn1 [Example 360, (R)-2-amino-N-(1-(3′-chloro-[1,1′-biphenyl]-4-carbonyl)pyrrolidin-3-yl)-5-(1-methyl-1H-pyrazol-4-yl)nicotinamide]
13 | 10 to 100 nM | Cn1cc(-c2cnc(N)c(C(=O)N[C@@H]3CCN(C(=O)c4ccc(-c5ccc(Cl)cc5Cl)cc4)C3)c2)cn1 [Example 361, (R)-2-amino-N-(1-(2′,4′-dichloro-[1,1′-biphenyl]-4-carbonyl)pyrrolidin-3-yl)-5-(1-methyl-1H-pyrazol-4-yl)nicotinamide]
14 | 100 to 1000 nM | Cn1cc(-c2cnc(N)c(C(=O)N[C@@H]3CCN(C(=O)c4ccc(-c5ccc(Cl)c(Cl)c5)cc4)C3)c2)cn1 [Example 362, (R)-2-amino-N-(1-(3′,4′-dichloro-[1,1′-biphenyl]-4-carbonyl)pyrrolidin-3-yl)-5-(1-methyl-1H-pyrazol-4-yl)nicotinamide]
15 | 100 to 1000 nM | Cn1cc(-c2cnc(N)c(C(=O)N[C@@H]3CCN(C(=O)c4ccc(-c5cc(Cl)cc(Cl)c5)cc4)C3)c2)cn1 [Example 363, (R)-2-amino-N-(1-(3′,5′-dichloro-[1,1′-biphenyl]-4-carbonyl)pyrrolidin-3-yl)-5-(1-methyl-1H-pyrazol-4-yl)nicotinamide]
16 | 10 to 100 nM | Cn1cc(-c2cnc(N)c(C(=O)N[C@@H]3CCN(C(=O)c4ccc(-c5cc(Cl)ccc5Cl)cc4)C3)c2)cn1 [Example 367, (R)-2-amino-N-(1-(2′,5′-dichloro-[1,1′-biphenyl]-4-carbonyl)pyrrolidin-3-yl)-5-(1-methyl-1H-pyrazol-4-yl)nicotinamide]
17 | 100 to 1000 nM | Cn1cc(-c2cnc(N)c(C(=O)N[C@@H]3CCN(C(=O)c4ccc(-c5c(Cl)cccc5Cl)cc4)C3)c2)cn1 [Example 368, (R)-2-amino-N-(1-(2′,6′-dichloro-[1,1′-biphenyl]-4-carbonyl)pyrrolidin-3-yl)-5-(1-methyl-1H-pyrazol-4-yl)nicotinamide]
18 | > 1000 nM | Cn1cc(-c2cnc(N)c(C(=O)N[C@@H]3CCN(C(=O)c4ccc(-c5ccc(C(F)(F)F)cc5)cc4)C3)c2)cn1 [Example 371, (R)-2-amino-5-(1-methyl-1H-pyrazol-4-yl)-N-(1-(4′-(trifluoromethyl)-[1,1′-biphenyl]-4-carbonyl)pyrrolidin-3-yl)nicotinamide]
19 | > 1000 nM | Cn1cc(-c2cnc(N)c(C(=O)N[C@@H]3CCN(C(=O)c4ccc(-c5ccc(OCc6ccccc6)cc5)cc4)C3)c2)cn1 [Example 372, (R)-2-amino-N-(1-(4′-(benzyloxy)-[1,1′-biphenyl]-4-carbonyl)pyrrolidin-3-yl)-5-(1-methyl-1H-pyrazol-4-yl)nicotinamide]
20 | 10 to 100 nM | Cn1cc(-c2cnc(N)c(C(=O)N[C@@H]3CCN(C(=O)c4ccc(-c5ccccc5Br)cc4)C3)c2)cn1 [Example 373, (R)-2-amino-N-(1-(2′-bromo-[1,1′-biphenyl]-4-carbonyl)pyrrolidin-3-yl)-5-(1-methyl-1H-pyrazol-4-yl)nicotinamide]
21 | 100 to 1000 nM | Cn1cc(-c2cnc(N)c(C(=O)N[C@@H]3CCN(C(=O)c4ccc(-c5ccccc5O)cc4)C3)c2)cn1 [Example 375, (R)-2-amino-N-(1-(2′-hydroxy-[1,1′-biphenyl]-4-carbonyl)pyrrolidin-3-yl)-5-(1-methyl-1H-pyrazol-4-yl)nicotinamide]
22 | 100 to 1000 nM | Cc1c(N)cccc1-c1ccc(C(=O)N2CC[C@@H](NC(=O)c3cc(-c4cnn(C)c4)cnc3N)C2)cc1 [Example 376, (R)-2-amino-N-(1-(3′-amino-2′-methyl-[1,1′-biphenyl]-4-carbonyl)pyrrolidin-3-yl)-5-(1-methyl-1H-pyrazol-4-yl)nicotinamide]
23 | 100 to 1000 nM | Cn1cc(-c2cnc(N)c(C(=O)N[C@@H]3CCN(C(=O)c4ccc(-c5ccc(Cl)cc5)cc4)C3)c2)cn1 [Example 377, (R)-2-amino-N-(1-(4′-chloro-[1,1′-biphenyl]-4-carbonyl)pyrrolidin-3-yl)-5-(1-methyl-1H-pyrazol-4-yl)nicotinamide]
24 | > 1000 nM | Cn1cc(-c2cnc(N)c(C(=O)N[C@@H]3CCN(C(=O)c4ccc(-c5ccc(C(C)(C)C)cc5)cc4)C3)c2)cn1 [Example 378, (R)-2-amino-N-(1-(4′-(tert-butyl)-[1,1′-biphenyl]-4-carbonyl)pyrrolidin-3-yl)-5-(1-methyl-1H-pyrazol-4-yl)nicotinamide]
25 | 100 to 1000 nM | Cn1cc(-c2cnc(N)c(C(=O)N[C@@H]3CCN(C(=O)c4ccc(-c5ccc(O)cc5)cc4)C3)c2)cn1 [Example 380, (R)-2-amino-N-(1-(4′-hydroxy-[1,1′-biphenyl]-4-carbonyl)pyrrolidin-3-yl)-5-(1-methyl-1H-pyrazol-4-yl)nicotinamide]
26 | > 1000 nM | CN1CCN(c2ccc(-c3ccc(C(=O)N4CC[C@@H](NC(=O)c5cc(-c6cnn(C)c6)cnc5N)C4)cc3)cc2)CC1 [Example 383, (R)-2-amino-5-(1-methyl-1H-pyrazol-4-yl)-N-(1-(4′-(4-methylpiperazin-1-yl)-[1,1′-biphenyl]-4-carbonyl)pyrrolidin-3-yl)nicotinamide]
27 | 10 to 100 nM | Cn1cc(-c2cnc(N)c(C(=O)N[C@@H]3CCN(C(=O)c4ccc(-c5ccc(C(C)(C)N6CCNCC6)cc5)cc4)C3)c2)cn1 [Example 384, (R)-2-amino-5-(1-methyl-1H-pyrazol-4-yl)-N-(1-(4′-(2-(piperazin-1-yl)propan-2-yl)-[1,1′-biphenyl]-4-carbonyl)pyrrolidin-3-yl)nicotinamide]

Row | Structure (SMILES) | IC50
28 | Cn1cc(-c2cnc(N)c(C(=O)N[C@@H]3CCN(C(=O)Oc4cccc(-c5ccc(CN6CCC(C(=O)O)C6)cc5)c4)C3)c2)cn1 (stereo partly drawn) [Example 329, 1-((3′-(((R)-3-(2-amino-5-(1-methyl-1H-pyrazol-4-yl)nicotinamido)pyrrolidine-1-carbonyl)oxy)-[1,1′-biphenyl]-4-yl)methyl)pyrrolidine-3-carboxylic acid] | > 1000 nM
29 | Cn1cc(-c2cnc(N)c(C(=O)N[C@@H]3CCN(C(=O)Oc4cccc(-c5cccc(CN6CC[C@H](N)C6)c5)c4)C3)c2)cn1 [Example 337, 3′-(((S)-3-aminopyrrolidin-1-yl)methyl)-[1,1′-biphenyl]-3-yl (R)-3-(2-amino-5-(1-methyl-1H-pyrazol-4-yl)nicotinamido)pyrrolidine-1-carboxylate] | > 1000 nM
30 | Cn1cc(-c2cnc(N)c(C(=O)N[C@@H]3CCN(C(=O)c4ccc(-c5ccccc5Oc5ccccc5)cc4)C3)c2)cn1 [Example 351, (R)-2-amino-5-(1-methyl-1H-pyrazol-4-yl)-N-(1-(2^1-phenoxy-[1,1′-biphenyl]-4-carbonyl)pyrrolidin-3-yl)nicotinamide] | > 1000 nM
